Experimental data taken from paper PMC12362764, “Novel Cyano‐Artemisinin Dimer ZQJ29 Targets PARP1 to Induce Ferroptosis in Pancreatic Cancer Treatment” (Advanced Science, 2025).

Tests used:
[1] = tested on: HEK-293T; test: CCK-8 cytotoxicity assay, HEK-293T (normal cell line); format: cell-based; conditions: Homo sapiens, 72 h
Protocol: Cell viability was evaluated using the Cell Counting Kit‐8 (Beyotime, Shanghai, China) assay. Cells were seeded in 96‐well plates at a density of 2×10^3 cells to allow for attachment. After treatment with ZQJ29 (0.001, 0.01, 0.1, 10, and 25 µM) for 24, 48, and 72 h, 10 µL of CCK‐8 solution was added to each well and incubated for 1 h. The optical density values were then measured at 450 nm using a multifunctional enzyme‐linked immunosorbent assay reader (Tecan, Spark, Switzerland).

[2] = Pharmacokinetic study after intragastric administration; format: in vivo, Sprague-Dawley (SD) rats; conditions: rat, 50 mg/kg i.g.
Protocol: Male Sprague‐Dawley (SD) rats (200 ± 20 g) were purchased from Beijing Vital River Laboratory Animal Technology Co., Ltd. (Beijing, China). After a one‐week acclimatization period, the rats were injected intragastrically with ZQJ29 (50 mg kg^−1). Blood samples were collected from the jugular veins after the injection of ZQJ29 (at 5, 10, 20, 40, 60, 120, 240, 360, 720, and 1440 min). The whole blood was centrifuged at 4000 × g for 10 min at 4 °C. Plasma was extracted with MeOH by vortexing for 10 min. After centrifugation for 12 min at 12 000 × g at 4 °C, the supernatant was analyzed using an HPLC‐MS/MS system. The concentration of ZQJ29 was quantitatively measured by the external standard method. Pharmacokinetic parameters were calculated using Drug and Statistic (DAS, version 2.0) software based on the compartmental method.

[3] = tested on: PANC-1 tumors; test: PANC-1 subcutaneous xenograft antitumor activity; format: in vivo, BALB/c nude mice
Protocol: Five‐week‐old male BALB/c nude mice were purchased from Shanghai Jihui Laboratory Animal Breeding Co., Ltd. (Shanghai, China). After a one‐week acclimatization period, PANC‐1 cells were subcutaneously injected at a dose of 5 × 10^6 cells per mouse. Four weeks post‐injection, once tumor volumes reached 50–100 mm^3, the tumor‐bearing animals were randomly divided into four groups, each consisting of six animals. ZQJ29 was prepared in a 0.5% CMC‐Na solution, while OXA was dissolved in saline. The control group was treated with oral gavage of 0.5% CMC‐Na, while the positive control group was administered intraperitoneal injections of OXA at a dosage of 3 mg kg^−1 every three days. The test groups were treated with oral gavage of ZQJ29 at dosages of 25 and 50 mg kg day^−1. Mouse weights were monitored every other day. Tumor measurements were taken every other day using calipers, and the tumor volume was calculated using the following formula: ½ × length × width^2. Drug administered continued for three weeks. After blood collection at the end of the administration, the mice were humanely euthanized, and their vital organs were promptly harvested, preserved, and embedded in paraffin for H&E staining.

[4] = tested on: PANC-1; test: Label-free proteomics; format: cell-based; conditions: PANC-1, 5 µM ZQJ29 vs DMSO, 24 h
Protocol: PANC‐1 cells were inoculated into 6‐well plates at ≈2 × 10^5 cells per well and grown for 24 h. After this period, the cells were treated with 5 µM ZQJ29 and an equal volume of solvent (DMSO) for an additional 24 h. Following treatment, the cells were removed from the incubator, and the medium was aspirated and discarded. The cells were washed twice with pre‐cooled PBS, which was then discarded. Next, 30 µL of RIPA lysis buffer containing PMSF (Yeasen, Shanghai, China) was added, and the cells were scraped off quickly using a cell scraper. The cell suspension was collected in 1.5 mL EP tubes and placed on ice. Cells were homogenized using ultrasound (3s × 15 times at 4s intervals), and the mixture was kept on ice for 10–15 min until the foam subsided. The centrifuge was pre‐cooled to 4 °C and centrifuged at 12 000 rpm for 15 min. The supernatant was collected to obtain the protein.
For each group of 3 samples, the protein concentration was determined by the BCA Protein Assay Kit (Beyotime, Shanghai, China). A total of 100 µg of protein was aspirated from each group. Five times the volume of acetone/ethanol/formic acid (50:50:0.1, v/v) was added, and the mixture was thoroughly mixed before allowing the protein to precipitate overnight at −20 °C. […] Finally, the sample was analyzed using instrumental LC‐MS (Agilent, USA).

[5] = target: PARP1 (Homo sapiens, UniProt P09874); test: SPR analysis (Biacore S200); format: binding; design: purchased Sino Biological 11040‐H08B; conditions: 25 °C, Steady State Affinity model
PARP1, sequence (P09874 whole entry): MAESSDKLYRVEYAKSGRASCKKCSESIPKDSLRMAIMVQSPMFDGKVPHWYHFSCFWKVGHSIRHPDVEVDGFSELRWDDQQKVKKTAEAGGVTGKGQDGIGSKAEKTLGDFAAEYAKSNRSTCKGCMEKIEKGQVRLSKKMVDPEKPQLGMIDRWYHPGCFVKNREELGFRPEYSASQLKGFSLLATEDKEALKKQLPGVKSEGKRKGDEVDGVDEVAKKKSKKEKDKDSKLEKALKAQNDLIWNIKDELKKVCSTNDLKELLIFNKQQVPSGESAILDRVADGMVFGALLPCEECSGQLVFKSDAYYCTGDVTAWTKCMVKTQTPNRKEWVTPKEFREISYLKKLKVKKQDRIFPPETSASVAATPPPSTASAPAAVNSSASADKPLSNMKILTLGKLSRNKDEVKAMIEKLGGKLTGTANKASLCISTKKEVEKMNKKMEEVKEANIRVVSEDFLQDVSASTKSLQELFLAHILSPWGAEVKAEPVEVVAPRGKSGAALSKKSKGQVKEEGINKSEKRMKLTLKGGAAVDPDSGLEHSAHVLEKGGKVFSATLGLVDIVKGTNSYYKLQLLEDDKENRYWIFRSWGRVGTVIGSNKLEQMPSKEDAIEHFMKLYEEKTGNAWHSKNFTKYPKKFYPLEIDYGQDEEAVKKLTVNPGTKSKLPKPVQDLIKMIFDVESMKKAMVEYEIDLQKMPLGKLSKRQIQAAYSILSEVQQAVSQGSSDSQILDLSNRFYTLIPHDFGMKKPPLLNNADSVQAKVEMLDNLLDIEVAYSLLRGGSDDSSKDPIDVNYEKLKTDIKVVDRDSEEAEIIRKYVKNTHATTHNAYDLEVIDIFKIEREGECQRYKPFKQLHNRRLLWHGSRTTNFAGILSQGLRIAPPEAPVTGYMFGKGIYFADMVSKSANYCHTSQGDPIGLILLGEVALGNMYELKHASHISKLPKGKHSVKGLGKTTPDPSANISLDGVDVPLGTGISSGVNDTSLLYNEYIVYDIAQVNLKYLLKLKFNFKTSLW
Protocol: The interaction between ZQJ29 and PARP1 was assessed by SPR with the Biacore S200 system at 25 °C (Cytiva). Recombinant human PARP1 protein (Sino Biological, 11040‐H08B) was immobilized on an activated carboxymethylated 5 (CM5) sensor chip using the amine coupling method. Gradient concentrations of 3 were injected at a flow rate of 40 µL min^−1 in a running buffer [5% (v/v) DMSO in PBS·P]. The results were analyzed with the Biacore evaluation software (S200 version). Data were fitted to the Steady State Affinity model, and kinetic parameters were derived.

[6] = male, Sprague-Dawley, plasma, po, n = 6
[7] = tumor tissue and proteomic analyses

SMILES: CC1CCC2C(C)C(OCCN(C#N)CCOC3OC4OC5(C)CCC6C(C)CCC(C3C)C46OO5)OC3OC4(C)CCC1C32OO4 (centres unmarked) [ZQJ29]
- IC50 [1]: > 10000 nM
- AUC(0-t) [2, 6]: 40 ± 16.3 ng·h/mL
- Cmax [2, 6]: 11.8 ± 6.05 ng/mL
- MRT last ([2]; male, Sprague-Dawley, plasma, po, n = 6, read-out: MRT0-t): 2.74 ± 0.46 h
- MRT inf ([2]; male, Sprague-Dawley, plasma, po, read-out: average residence time (MRT0-inf)): 2.74 h
- half-life ([2]; male, Sprague-Dawley, plasma, po, 50 mg/kg, n = 6): 1.58 ± 0.26 h
- t1/2 ([2]; n = 6, 50 mg/kg): 1.6 h
- tumor size and weight ([3]; 25 or 50 mg/kg oral, vs control group): significantly reduced
- tumor growth ([3]; ZQJ29 25 and 50 mg/kg/day oral gavage, OXA 3 mg/kg i.p. every three days, three weeks, vs control): effectively inhibited
- expression of Ki67 and PCNA in tumor tissue (IHC) ([3]; after treatment, vs control): significantly reduced
- expression of PARP1, SLC7A11 and GPX4 [3, 7]: downregulated
- expression of TP53 [3, 7]: upregulated
- PARP1 protein level (proteomics) [4]: prominently down‐regulated
- Kd [5]: 2860 nM
